# Measured values published in patent US9611262B2, “Substituted 2-azabicycles and their use as orexin receptor modulators” (JANSSEN PHARMACEUTICA NV, priority 2014, dated 2017).
# Experiments:
# rat orexin 1 receptor = rat orexin 1 receptor (Rattus norvegicus, UniProt P56718); experiment: Rat orexin 1 receptor radioligand binding (competitive); details: HEK293 cells stably expressing rat orexin 1 receptor; 4 nM radioligand; averages of 2-20 runs; read-out: rOX1 Ki
# Experimental: (§1) The in vitro affinity of the compounds of the invention for the rat/human orexin 1 and human orexin 2 receptors was determined by competitive radioligand binding using [^3H](1-(5-(2-fluoro-phenyl)-2-methyl-thiazol-4-yl)-1-((S)-2-(5-phenyl-(1,3,4)oxadiazol-2-ylmethyl)-pyrrolidin-1-yl)-methanone) (Langmead et al., 2004) and [^3H]EMPA (n-ethyl-2[96-methoxy-pyridin-3-yl)-(toluene-2-sulfonyl)-amino]-N-pyridin-3-ylmethyl acetamide), respectively (Langmead et al., 2004, British Journal of Pharmacology 141:340-346; Malherbe et al., 2004, British Journal of Pharmacology 156:1326-41).
# (§2) Data are analyzed using pc-Sandy macro and graphed on Graphpad Prism 5. For analysis, each concentration point is averaged from triplicate values and the averaged values are plotted on Graphpad Prism. The IC50 was determined by applying the following equation (GraphPad Prism 5.0, San Diego) for one site competition where X=log (concentration) and Y=specific binding. Top denotes the total [^3H]— (1-(5-(2-fluoro-phenyl)-2-methyl-thiazol-4-yl)-1-((S)-2-(5-phenyl-(1,3,4)oxadiazol-2-ylmethyl)-pyrrolidin-1-yl)-methanone) binding, bottom denotes the nonspecific [^3H]— (1-(5-(2-fluoro-phenyl)-2-methyl-thiazol-4-yl)-1-((S)-2-(5-phenyl-(1,3,4)oxadiazol-2-ylmethyl)-pyrrolidin-1-yl)-methanone) binding. Graphpad Prism calculates Ki value from IC50 and the pre-determined Kd values for [^3H]— (1-(5-(2-fluoro-phenyl)-2-methyl-thiazol-4-yl)-1-((S)-2-(5-phenyl-(1,3,4)oxadiazol-2-ylmethyl)-pyrrolidin-1-yl)-methanone) and [^3H]-EMPA. The Ki for each compound is then uploaded into 3DX. Each run comprises individual compounds in triplicate. The data in Table 1 and Table 2 represent averages from between 2-20 runs
# (§3) Rat and Human Orexin 1 Receptor Radioligand Binding Studies
# (§4) Human Embryonic Kidney 293 cells (HEK293) stably expressing rat orexin 1 receptor (Genebank accession number NM_001525) or Chinese ovary cells (CHO) stably expressing human orexin 1 receptor (Genebank accession number […]) were grown to confluency in DMEM (Hyclone, cat # SH30022), 10% FBS, 1× Pen/Strep, 1× sodium pyruvate, 10 mM HEPES, 600 μg/mL G418 and DMEM/F12 (Gibco, Cat #11039), 10% FBS, 1× Pen/Strep, 600 μg/mL G418 media, respectively on 150 cm^2 tissue culture plates, washed with 5 mM EDTA in PBS (HyClone Dulbecco's Phosphate Buffered Saline 1× with Calcium and Magnesium, Cat # SH30264.01, hereafter referred to simply as PBS) and scraped into 50 ml tubes. After centrifugation (2K×G, 5 min at 4° C.), the supernatant was aspirated and the pellets frozen and stored at −80° C. Cells were resuspended in PBS in the presence of 1 tablet of protease inhibitor cocktail (Roche, Cat. #11836145001) per 50 mL. […] Competition binding experiments in 96 well polypropylene plates were performed using [^3H]— (1-(5-(2-fluoro-phenyl)-2-methyl-thiazol-4-yl)-1-((S)-2-(5-phenyl-(1,3,4)oxadiazol-2-ylmethyl)-pyrrolidin-1-yl)-methanone) (Moraveck Corporation, specific activity=35.3 Ci/mmol), diluted to a 10 nM concentration in PBS (4 nM final). Compounds were solubilized in 100% DMSO (Acros Organics, Cat. #61042-1000) and tested over a range of 7 concentrations (from 0.1 nM to 10 μM). The final concentration of DMSO in the reactions is equal to or less than 0.1%. Total and nonspecific binding was determined in the absence and presence of 10 μM almorexant. The total volume of each reaction is 200 μL (20 μL of diluted compounds, 80 μL of [^3H]— (1-(5-(2-fluoro-phenyl)-2-methyl-thiazol-4-yl)-1-((S)-2-(5-phenyl-(1,3,4)oxadiazol-2-ylmethyl)-pyrrolidin-1-yl)-methanone) diluted in PBS and 100 μL of the cell suspension). Reactions were run for 60 min at room temperature and terminated by filtration through GF/C filter plates (PerkinElmer, Cat. #6005174) presoaked in 0.3% polyethylenimine using the cell harvester (PerkinElmer Filtermate). The plates were washed 3 times by aspirating 30 ml PBS through the plates. Plates were dried in 55° C. oven for 60 min, scintillation fluid was added, and the radioactivity was counted on a Topcount (Packard). […]
# human orexin 1 receptor = human orexin 1 receptor (Homo sapiens (Human), UniProt O43613); experiment: Human orexin 1 receptor radioligand binding (competitive); details: CHO cells stably expressing human orexin 1 receptor; 4 nM radioligand; averages of 2-20 runs; read-out: hOX1 Ki
# Sequence of human orexin 1 receptor (O43613 whole entry): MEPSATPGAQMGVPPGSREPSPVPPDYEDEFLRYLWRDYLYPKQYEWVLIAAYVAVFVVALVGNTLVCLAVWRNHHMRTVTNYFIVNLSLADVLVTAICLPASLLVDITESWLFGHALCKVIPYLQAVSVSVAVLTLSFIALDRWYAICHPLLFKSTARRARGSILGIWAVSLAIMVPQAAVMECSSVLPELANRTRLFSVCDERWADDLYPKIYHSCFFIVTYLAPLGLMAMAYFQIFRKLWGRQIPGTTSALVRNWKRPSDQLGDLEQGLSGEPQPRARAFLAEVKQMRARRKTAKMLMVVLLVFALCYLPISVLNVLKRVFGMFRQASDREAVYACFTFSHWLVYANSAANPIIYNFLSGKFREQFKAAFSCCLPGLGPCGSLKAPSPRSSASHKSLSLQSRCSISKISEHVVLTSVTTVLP
# Experimental: as §1, §2, §3, §4
# human orexin 2 receptor = human orexin 2 receptor (Homo sapiens (Human), UniProt O43614); experiment: Human orexin 2 receptor radioligand binding ([3H]-EMPA competition); details: HEK293 stably expressing human orexin 2 receptor; 2 nM [3H]-EMPA; averages of 2-20 runs; read-out: hOX2 Ki
# Sequence of human orexin 2 receptor (O43614 whole entry): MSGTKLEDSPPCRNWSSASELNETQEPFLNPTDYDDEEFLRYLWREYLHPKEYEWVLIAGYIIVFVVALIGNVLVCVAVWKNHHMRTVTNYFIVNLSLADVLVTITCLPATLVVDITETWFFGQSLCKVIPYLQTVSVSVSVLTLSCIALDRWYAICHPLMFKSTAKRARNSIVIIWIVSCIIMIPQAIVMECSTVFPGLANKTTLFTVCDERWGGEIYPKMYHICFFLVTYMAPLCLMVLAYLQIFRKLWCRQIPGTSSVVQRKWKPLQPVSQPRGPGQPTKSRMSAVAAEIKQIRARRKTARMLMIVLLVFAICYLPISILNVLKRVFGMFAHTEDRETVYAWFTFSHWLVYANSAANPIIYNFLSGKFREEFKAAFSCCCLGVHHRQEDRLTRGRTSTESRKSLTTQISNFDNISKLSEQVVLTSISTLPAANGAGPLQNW
# Method in brief: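 Membranes-free whole HEK293 cells stably expressing human OX2 receptor incubated with [3H]-EMPA and compound (7 concentrations, 0.1 nM–10 μM, ≤0.1% DMSO) for 60 min at room temperature; nonspecific binding with 10 μM almorexant. Filtration and scintillation counting; one-site IC50 converted to Ki using predetermined Kd, triplicates averaged over 2-20 runs.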
Ki (rat orexin 1 receptor) [nM],Ki (human orexin 1 receptor) [nM],Ki (human orexin 2 receptor) [nM],SMILES
125,144,1200,"Cc1ccc(Br)c(C(=O)N2C(C)C3CC(Nc4cnc(C(F)(F)F)cn4)C2C3)n1 (racemic) [Example 7, (R/S)-(3-bromo-6-methylpyridin-2-yl)(3-methyl-6-((5-(trifluoromethyl)pyrazin-2-yl)amino)-2-azabicyclo[2.2.1]heptan-2-yl)methanone]"
8,8,,"CC1C2CC(Oc3ccc(C(F)(F)F)cn3)C(C2)N1C(=O)c1cccc(F)c1-c1ncco1 (racemic) [Example 12, (R/S)-(3-fluoro-2-(oxazol-2-yl)phenyl)(3-methyl-6-((5-(trifluoromethyl)pyridin-2-yl)oxy)-2-azabicyclo[2.2.1]heptan-2-yl)methanone]"
11,13,3700,CC1C2CC(Oc3ccc(C(F)(F)F)cn3)C(C2)N1C(=O)c1ncccc1-c1ncccn1 (racemic) [Example 14]
10,29,,"CC1C2CC(Oc3ccc(C(F)(F)F)cn3)C(C2)N1C(=O)c1ccccc1-c1ncc(F)cn1 (racemic) [Example 19, (R/S)-(2-(5-fluoropyrimidin-2-yl)phenyl)(3-methyl-6-((5-(trifluoromethyl)pyridin-2-yl)oxy)-2-azabicyclo[2.2.1]heptan-2-yl)methanone]"
55,45,> 10000,"Cc1ccc(-n2nccn2)c(C(=O)N2C(C)C3CC(Oc4cnc(C(F)(F)F)cn4)C2C3)n1 (racemic) [Example 42, (R/S)-(6-methyl-3-(2H-1,2,3-triazol-2-yl)pyridin-2-yl)(3-methyl-6-((5-(trifluoromethyl)pyrazin-2-yl)oxy)-2-azabicyclo[2.2.1]heptan-2-yl)methanone]"
71,55,,"Cc1ccc(-c2ncccn2)c(C(=O)N2C(C)C3CC(Oc4cnc(C(F)(F)F)cn4)C2C3)n1 (racemic) [Example 44, (R/S)-(6-methyl-3-(pyrimidin-2-yl)pyridin-2-yl)(3-methyl-6-((5-(trifluoromethyl)pyrazin-2-yl)oxy)-2-azabicyclo[2.2.1]heptan-2-yl)methanone]"
51,45,,"CC(C)CC1C2CC(Oc3ccc(C(F)(F)F)cn3)C(C2)N1C(=O)c1ccccc1-n1nccn1 (racemic) [Example 207, (R/S)-[2-isobutyl-5-[[5-(trifluoromethyl)-2-pyridyl]oxy]-3-azabicyclo[2.2.1]heptan-3-yl]-[2-(triazol-2-yl)phenyl]methanone]"
4,2,,"CCC1C2CC(Oc3ccc(C(F)(F)F)cn3)C(C2)N1C(=O)c1ccccc1-n1nccn1 (racemic) [Example 213, (R/S)-[2-ethyl-5-[[5-(trifluoromethyl)-2-pyridyl]oxy]-3-azabicyclo[2.2.1]heptan-3-yl]-[2-(triazol-2-yl)phenyl]methanone]"
6,5,,"C[C@@H]1[C@H]2C[C@@H](Oc3ccc(C(F)(F)F)cn3)[C@H](C2)N1C(=O)c1ccc(F)cc1-n1nccn1 (relative stereo) [Example 28, (4-fluoro-2-(2H-1,2,3-triazol-2-yl)phenyl)((1S*,3R*,4R*,6R*)-3-methyl-6-((5-(trifluoromethyl)pyridin-2-yl)oxy)-2-azabicyclo[2.2.1]heptan-2-yl)methanone]"
6,6,,"COc1ccc(C(=O)N2[C@H](C)[C@H]3C[C@@H](Oc4ccc(C(F)(F)F)cn4)[C@@H]2C3)c(-n2nccn2)c1 (relative stereo) [Example 31, (4-methoxy-2-(2H-1,2,3-triazol-2-yl)phenyl)((1S*,3R*,4R*,6R*)-3-methyl-6-((5-(trifluoromethyl)pyridin-2-yl)oxy)-2-azabicyclo[2.2.1]heptan-2-yl)methanone]"
4,7,,"Cc1cnc(C(=O)N2[C@H](C)[C@H]3C[C@@H](Oc4ccc(C(F)(F)F)cn4)[C@@H]2C3)c(-c2ncccn2)c1 (relative stereo) [Example 35, (5-methyl-3-(pyrimidin-2-yl)pyridin-2-yl)((1S*,3R*,4R*,6R*)-3-methyl-6-((5-(trifluoromethyl)pyridin-2-yl)oxy)-2-azabicyclo[2.2.1]heptan-2-yl)methanone]"
4,2,,"C[C@@H]1[C@H]2C[C@@H](Oc3cnc4ccccc4n3)[C@H](C2)N1C(=O)c1cccc(F)c1-n1nccn1 (relative stereo) [Example 184, (3-fluoro-2-(2H-1,2,3-triazol-2-yl)phenyl)((1S*,3R*,4R*,6R*)-3-methyl-6-(quinoxalin-2-yloxy)-2-azabicyclo[2.2.1]heptan-2-yl)methanone]"
56,59,,"CC1C2CC(Nc3cnc(C(F)(F)F)cn3)C(C2)N1C(=O)c1cccc(F)c1-c1ncccn1 (single isomer, unassigned) [Example 4, (R/S)-(3-fluoro-2-(pyrimidin-2-yl)phenyl)(3-methyl-6-((5-(trifluoromethyl)pyrazin-2-yl)amino)-2-azabicyclo[2.2.1]heptan-2-yl)methanone]"
5,6,,"CC1C2CC(Oc3ccc(C(F)(F)F)cn3)C(C2)N1C(=O)c1ccccc1-c1ncc(F)cn1 (single isomer, unassigned) [Example 19B, (2-(5-fluoropyrimidin-2-yl)phenyl)((1S*,3R*,4R*,6R*)-3-methyl-6-((5-(trifluoromethyl)pyridin-2-yl)oxy)-2-azabicyclo[2.2.1]heptan-2-yl)methanone]"
16,21,,"CC1C2CC(Nc3cnc(C(F)(F)F)cn3)C(C2)N1C(=O)c1cccc(F)c1-c1ncccn1 (single isomer, unassigned) [Example 67, (R/S)-(3-fluoro-2-(pyrimidin-2-yl)phenyl)(3-methyl-6-((5-(trifluoromethyl)pyrazin-2-yl)amino)-2-azabicyclo[2.2.1]heptan-2-yl)methanone]"
3,3,,"C[C@@H]1[C@H]2C[C@@H](Oc3ccc(Cl)cn3)[C@H](C2)N1C(=O)c1ccccc1-n1nccn1 [Example 121, [(1R,2R,4S,5R)-5-[(5-chloro-2-pyridyl)oxy]-2-methyl-3-azabicyclo[2.2.1]heptan-3-yl]-[2-(triazol-2-yl)phenyl]methanone]"
8,4,,"[2H]C1([2H])[C@H]2C[C@@H]([C@@H]1Oc1ccc(Cl)cn1)N(C(=O)c1ccccc1-n1nccn1)[C@@H]2C [Example 195, [(1R,3R,4S,6R)-3-[(5-chloro-2-pyridyl)oxy]-2,2-dideuterio-6-methyl-5-azabicyclo[2.2.1]heptan-5-yl]-[2-(triazol-2-yl)phenyl]methanone]"
